Assay results as given in US20070134657A1, “Methods and compositions relating to gradient exposed cells” (GENERAL HOSPITAL CORPORATION, THE, priority 2002, published 2007).

Columns and labels:
human neutrophils [1] = experiment: Effect of signaling pathway inhibitors on directional neutrophil migration in IL-8 gradients (microfluidic device); assay type: cell-based
Text: (§1) Microfluidic Migration Assay and Timelapse Microscopy: Neutrophils (1×10^3 cells) were placed uniformly across the migration channel and allowed to migrate under a linear gradient of human Interleukin-8 (72 a.a.; PeproTech, Rocky Hill, N.J.) in IMDM with 0.5% (w/v) FCS flowing at 0.1 mm/sec. […] Brightfield images were taken every 30 seconds using a C4742-95 Hamamatsu digital camera (Hamamatsu, Japan) controlled by IPLab 3.6.1 (Scanalytics, Fairfax, Va.). Cell movement was always observed at a set point along the migration channel. Gradients were also calibrated at this set point. Migration was quantified for all cells across the gradient.
Signaling Pathway Inhibitors: Cells were treated with pertussis toxin (100 ng/mL; 30 minutes at 37° C.), wortmannin (1 μM, 10 μM; 20 minutes at 37° C., 8-Br-cAMP (1 mM; 15 minutes at room temperature), 8-Br-cGMP (1 mM; 15 minutes at room temperature) (Sigma-Aldrich), or the CXCR2 non-peptide antagonist, SB225002 (1 pM, 100 pM, 1 nM, or 1 μM for 15 minutes at 37° C.; Calbiochem, Calif.). Immediately after treatment cells were seeded in migration channel of the microfluidic device and allowed to migrate as described above.
Since receptor occupancy is known to play a role in directional decision making and gradient sensing in the context of chemotaxing eukaryotic cells, it was postulated that chemokine receptor occupancy by a chemokine might also play a critical role in the decision of a cell to move up or down a chemokine gradient. Thus, a SB25002, the specific non-peptide antagonist of the IL-8 receptor, CXCR2 was utilized to examine this postulate. Neutrophils were pretreated with SB225002 at concentrations between 1 pM and 1 μM and then exposed to 0 to 1.2 μM gradients of IL-8 in microfabricated devices as described above. Videos of cell migration were analysed using MetaMorph and MathLab software to generate normalized angular frequencies determined for cells migrating in each of the three sectors of the gradient. The absence of inhibitor generates a normalized angular frequency of 1.0 whereas inhibition of fugetactic or chemotactic angular frequencies results in a normalized frequency of <1.0 and augmentation of either directional response results in a value greater than 1. This analysis allows to precisely quantitate the effect of a given concentration of inhibitor on the directional decision of the cell to move up or down a gradient. […] Furthermore, although IL-8 binds to both CXCR2 and CXCR1 on the cell surface, of the human neutrophil bi-directional signaling was evidently critically dependent on CXCR2.
It had been previously shown that the signaling pathway for chemotaxis is distinct from that for chemorepulsion or fugetaxis. […] The study of neutrophil migration in microfabricated devices allows to examine precisely the effects of these inhibitors on quantitative parameters of cell migration including the directional bias of cells in the context of precisely defined and stable chemokine gradients. Primary human neutrophils were pretreated with known inhibitors of the chemokine signal transduction pathway including pertussis toxin, wortmannin, genistein, 8-Br-cAMP and 8-Br-cGMP and then exposed to IL-8 gradients in which chemotaxis and fugetaxis were seen. The effect of the inhibitor on directional migration towards or away from the chemokine was quantitated by determining the directional motility index of cells migrating in the context of these gradients. Movement vector angles corresponding to movement up the gradient (30 to 150 degrees—see FIG. 13) were defined as chemotactic and measured movement vector angles corresponding to movement down the gradient (210 to 330 degrees—see figure) were defined as fugetactic. The directional choice of cells to move up or down a chemokine gradient were therefore compared in the presence and the absence of an inhibitor. […]

human neutrophils [2] = experiment: Microfluidic migration assay of neutrophils in linear gradients of IL-8; assay type: cell-based
Protocol: Neutrophil isolation: Human whole blood was obtained from healthy volunteers by venipuncture into tubes containing sodium heparin (Becton Dickinson, San Jose, Calif.). Whole blood was centrifuged for 4 minutes at 2400 rpm and plasma was removed. Resulting pellet was resuspended in Iscove's Modified Dulbecco's Medium (IMDM; Cellgro MediaTech, Herndon, Va.) with 0.5% (w/v) fetal calf serum FCS; Cellgro MediaTech). 25 mL of suspension was layered over 10 mL Lymphocyte Separation Medium (ICN, Irvine, Calif.) and centrifuged for 40 minutes at 1600 rpm at 22° C. Supernatant was aspirated, resulting pellet was resuspended in IMDM with 0.5% (w/v) FCS and 2% (w/v) dextran (Sigma-Aldrich, St. Louis, Mo.), and red blood cells (RBC) were allowed to sediment for 30 minutes at room temperature. Supernatant was transferred into clean tube and centrifuged for 5 minutes at 2000 rpm. Supernatant was aspirated, pellet was mixed with cold ddH2O for hypotonic lysis of remaining RBCs, and transferred to IMDM with 0.5% (w/v) FCS. Isolated neutrophils were washed and resuspended in IMDM with 0.5% (w/v) FCS, determined to be 95% pure, and 99% viable by Trypan Blue exclusion.
Fabrication and Preparation of Microfluidic Linear Gradient Generator: The microfluidic linear gradient generator was fabricated in poly(dimethylsiloxane) (PDMS; Sylgard 184, Dow Corning, N.Y.) using rapid prototyping and soft lithography as described previously. Briefly, a high resolution printer was used to generate a transparency mask from a computer-aided design image file. The mask was used in contact photolithography with SU-8 photoresist (Microlithography Chemical Co., Newton Mass.) to generate a positive relief of patterned photoresist on a silicon wafer. Replicas with embossed channels were fabricated by curing PDMS prepolymer against the patterned wafer. Inlet and outlet ports for media and cell suspension were bored out of the cured PDMS replica using a sharpened syringe needle. The PDMS replica and glass substrate were placed in an oxygen plasma generator (150 mTorr, 100 W) for 1 minute. Immediately following plasma treatment, the PDMS replica and glass were placed against each other and irreversibly bonded. Polyethylene tubing (Becton Dickenson) was inserted into inlet and outlet ports to make the fluidic connections. Tubing was connected to a PHD 2000 syringe pump (Harvard Apparatus, Holliston, Mass.) to complete the setup. Hemostats were used to control flow during cell loading.
as §1, with “[…];” for “cells) were placed uniformly across the migration channel and allowed to migrate under a linear gradient of human Interleukin-8 (72 a.a.;”
Construction of Digital Videos for Quantitative Analysis: Digital videos were mad from time-lapse video microscopy file stacks or S-VHS videotapes using a combination of IPLab 3.6.1, Photoshop 6.0 (Adobe Systems, San Jose, Calif.), and Apple QuickTime Pro 5.0 (Apple Computer, Cupertino, Calif.). Migration tracking was carried out using MetaMorph 4.5 (Universal Imaging, Downington, Pa.) object tracking application, which generated tables of Cartesian coordinate data for each tracked cell.
Mathematical Analysis of Cell Migration in Linear Gradient Generator: The angular correlation function, or cosine correlation function, was calculated for each experiment. For experiments with no gradient, the correlation function decayed exponentially with increasing time interval, while the function decayed much slower, potentially by a power law, for experiments with a gradient; in all cases correlation of angles over time was increased as absolute [IL-8] increased. […]

rat neutrophils = experiment: Intravital microscopy of rat neutrophil migration in response to diffusive CINC-1 gradients in mesentery; assay type: in vivo
Protocol: Intravital Microscopy: Male Sprague Dawley rats (200-300 g) were purchased from Harlan-Olac (Bicester, U.K.). Male rats were prepared for intravital microscopy. Briefly, following sedation with i.m. Hypnorm (fentanyl-fluanisone mixture, 0.1 ml; Janssen-Cilag, High Wycombe, U.K.), animals were anesthetized with i.v. sodium pentobarbitone (30 mg/kg loading dose followed by 30 mg/kg/h; Rhône Mérieux, Harlow, U.K). The animals were maintained at 37° C. on a custom-built heated microscope stage. Following midline abdominal incision, the mesentery adjoining the terminal ileum was carefully arranged over a glass window in the microscope stage and pinned in position. The mesentery was kept warm and moist by continuous application of Tyrode's balanced salt solution (Sigma Aldrich). Mesenteric post-capillary venules (15-40 μm in diameter) were viewed on an upright fixed-stage microscope (Axioskop F S, Carl Zeiss, Welwyn Garden City, U.K.) fitted with water immersion objectives. Images were captured with a digital camera (C5810-01, Hamamatsu Photonics U.K., Enfield, U.K.) for viewing on a monitor (PVM-1453 MD, Sony U.K., Weybridge, U.K.) and storage by videocassette recorder (AG-MD830E, Panasonic U.K., Bracknell, U.K.). […] Firmly adherent leukocytes were defined as those that remained stationary for at least 30 s within a 100-μm segment of a venule. Extravasated leukocytes were defined as those in the perivenular tissue adjacent to, but remaining within a distance of 150 μm of a 100-μm length of vessel segment under study. After baseline readings of rolling, adhesion and transmigration were taken; CINC-1 at final concentrations of 10^−9 M, […] or 10^−7M (Peprotech) was applied topically to the mesenteric tissue in the superfusion buffer. Leukocyte responses within the chosen vessels were quantified for up to 180 minutes, during which the topical application of CINC-1 was maintained. In each animal, multiple vessel segments from appropriate vessels were quantified. Videos of migrating cells were constucted for quantitative and mathematical analysis as described above; at the end of certain in vivo experiments, the mesentery was stained with acridine orange (Sigma Aldrich), a nuclear dye, scanned with a 488 nm laser line generated from an Argon laser, and observed by confocal microscopy (LSM5 PASCAL, Axioskop II FS, Carl Zeiss) to verify that migrating cells were neutrophils.
Mathematical Modeling of Continuous Gradients in vivo: The chemokine concentration profile in the mesentery at steady state was predicted using a novel in vivo model based on classical diffusion equations applied on a spherical model of the postcapillary venule, and the assumption that the receptor-dependent transport of the chemokine by the endothelial cells is the main mechanism for generating the gradient the vicinity of postcapillary venules. The steady state solution was calculated for the concentration gradient around a sphere in a homogenous medium, with the two boundary conditions: 1) the concentration far from the sphere is constant, and 2) the chemokine flux across the surface of the sphere also constant. […] Thus, the steady state concentration C at distance r from the capillary wall was calculated as: [formula] […]

[3] = pretreated cells, IL-8 gradients in which chemotaxis and fugetaxis were seen

Molecule: O=C(Nc1ccc([N+](=O)[O-])cc1O)Nc1ccccc1Br [SB225002]
- effect on neutrophil chemotaxis (normalized angular frequency) (human neutrophils [1]; 1 pM and 100 pM inhibitor, 0 to 1.2 μM gradient of IL-8): augmented
- effect on neutrophil fugetaxis (normalized angular frequency) (human neutrophils [1]; 1 pM inhibitor, 0 to 1.2 μM gradient of IL-8, p=0.0037): significant inhibition
- effect on neutrophil fugetaxis (normalized angular frequency) (human neutrophils [1]; 100 pM inhibitor, 0 to 1.2 μM gradient of IL-8, p=0.0210): significant inhibition
- effect on neutrophil directional migration (human neutrophils [1]; gradually increasing concentrations (up to 1 μM), 0 to 1.2 μM gradient of IL-8): inhibited both fugetaxis and chemotaxis

Molecule: IL-8: human Interleukin-8 (72 a.a.; PeproTech), chemokine
- Persistence time of cell movement (human neutrophils [2]; IL-8 gradient in which chemotaxis is seen predominantly): 21.5 min
- Persistence time of cell movement (human neutrophils [2]; IL-8 gradient in which fugetaxis is seen predominantly): 10.9 min
- neutrophil migratory behaviour (human neutrophils [2]; chemokine at a uniform concentration across the migration channel): underwent chemokinesis
- mean chemotropism index (MCI) (human neutrophils [2]; gradient between 0 and 12 nM): +0.32
- mean chemotropism index (MCI) (human neutrophils [2]; gradient between 0 and 120 nM): +0.39
- mean chemotropism index (MCI) (human neutrophils [2]; gradient of 0 to 1.2 μM): −0.13
- neutrophil migratory behaviour (human neutrophils [2]; gradient of 0 to 1.2, cells commencing in the central third of the gradient): underwent chemokinesis
- neutrophil migratory behaviour (human neutrophils [2]; gradient of 0 to 1.2, cells in the lower third of the gradient): chemotaxed towards higher levels of the chemokine
- neutrophil migratory behaviour (human neutrophils [2]; gradient of 0 to 1.2, cells originating in the upper third of the gradient): underwent fugetaxis down the gradient
- neutrophil migratory behaviour (human neutrophils [2]; gradients between 0 and 12 nM and 0 and 120 nM): predominantly demonstrated chemotaxis
- mean sectional MCI (human neutrophils [2]; lower segment of the 0 to 10.2 μM gradient): +0.2
- mean sectional MCI (human neutrophils [2]; middle third of the 0 to 10.2 μM gradient): −0.14
- neutrophil migratory behaviour (human neutrophils [2]; steepest gradient, 0 to 2.4 μM): underwent chemokinesis regardless of their position within the gradient
- Persistence time of cell movement (human neutrophils [2]; uniform concentration of IL-8 (chemokinesis)): 4.5 min
- mean chemotropism index (MCI) (human neutrophils [2]; uniform concentration of chemokine at 120 nM): −0.02 +/−0.01
- mean sectional MCI (human neutrophils [2]; upper third of the 0 to 10.2 μM gradient): −0.22

Molecule: pertussis toxin
- effect on neutrophil chemotaxis (angular frequency, movement up the gradient) (human neutrophils [1]; [3]): significantly inhibited
- effect on neutrophil fugetaxis (angular frequency, movement down the gradient) (human neutrophils [1]; [3]): significantly inhibited

B1: CINC-1: rat IL-8 orthologue, cytokine induced neutrophil chemoattractant-1, signals via CXCR2 (protein, UniProt P14095 25-96, looked up)
Growth-regulated alpha protein: APVANELRCQCLQTVAGIHFKNIQSLKVMPPGPHCTQTEVIATLKNGREACLDPEAPMVQKIVQKMLKGVPK
- neutrophil response to superfused chemokine (rat neutrophils; 1 nM): minimal neutrophil adhesion to the luminal surface of the venule and transmigration
- neutrophil response to superfused chemokine (rat neutrophils; 100 nM): accumulation of neutrophils around the vessel without transmigration
- mean chemotropism index (MCI) in vivo (rat neutrophils; diffusive gradient with peak concentration of 10 nM): +0.32+/−0.06
- mean chemotropism index (MCI) in vivo (rat neutrophils; gradient replaced with peak concentration of 100 nM): −0.35+/−0.12
- peak chemokine concentration at which peak transendothelial migration of neutrophils from the blood occurred (rat neutrophils; superfusion at 1 nM, 10 nM or 100 nM for 90 minutes): 10 nM
